Earlier results on 3 compounds are cited in patent US20060134244A1, “Breast health supplement and detoxification preparations” (priority 2004, published 2006).

For series [1], the system named is precancerous lesions of the cervix and laryngeal papillomas. Conditions: pathologies with a human papillomavirus (HPV); reported.
For series [2] the following is noted: oral administration; reported.

For the compound `OCc1c[nH]c2ccccc12` [Example I3C, indole-3-carbinol], the “clinical effectiveness in treating precancerous lesions of the cervix and laryngeal papillomas” value in series [1] is listed as “clinically effective”. In the case of `O=C(O)CN(CCN(CC(=O)O)CC(=O)O)CC(=O)O` [EDTA, ethylenediamine-N,N,N′,N′-tetraacetic acid], the “unabsorbed EDTA that remains within the digestive tract” value in series [2] is given as 95%. Consider `c1ccc2c(Cc3c[nH]c4ccccc34)c[nH]c2c1` [DIM, 3,3′-diindolylmethane], for which the “clinical effectiveness in treating precancerous lesions of the cervix and laryngeal papillomas” value in series [1] is “clinically effective”.
